# Measured values from publication doi:10.1101/2023.03.24.534094v2 (biorxiv, 2023).
# Experiments:
# MST4 = MST4 (Homo sapiens, UniProt Q9P289); assay: biochemical
# MST2 = target: T1, MST2 (Homo sapiens, UniProt Q13188); assay: biochemical
# T1 sequence (Q13188 1-491): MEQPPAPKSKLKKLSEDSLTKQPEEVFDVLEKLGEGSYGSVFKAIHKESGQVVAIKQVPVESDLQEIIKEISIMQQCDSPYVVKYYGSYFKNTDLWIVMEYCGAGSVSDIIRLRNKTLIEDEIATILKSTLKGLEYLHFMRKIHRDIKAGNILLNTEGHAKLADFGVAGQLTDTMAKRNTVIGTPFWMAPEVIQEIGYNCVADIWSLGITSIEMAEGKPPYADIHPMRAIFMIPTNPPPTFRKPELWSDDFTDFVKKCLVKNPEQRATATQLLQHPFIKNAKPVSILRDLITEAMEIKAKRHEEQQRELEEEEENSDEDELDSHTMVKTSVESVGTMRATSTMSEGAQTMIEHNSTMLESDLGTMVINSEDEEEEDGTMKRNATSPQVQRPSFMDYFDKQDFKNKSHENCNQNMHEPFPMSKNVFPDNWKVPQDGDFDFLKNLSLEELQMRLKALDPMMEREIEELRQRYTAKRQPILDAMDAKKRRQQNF
# BMX = target: T2, BMX (Homo sapiens, UniProt P51813); assay: NanoBRET target engagement; type: cell-based
# T2 sequence (P51813 1-675): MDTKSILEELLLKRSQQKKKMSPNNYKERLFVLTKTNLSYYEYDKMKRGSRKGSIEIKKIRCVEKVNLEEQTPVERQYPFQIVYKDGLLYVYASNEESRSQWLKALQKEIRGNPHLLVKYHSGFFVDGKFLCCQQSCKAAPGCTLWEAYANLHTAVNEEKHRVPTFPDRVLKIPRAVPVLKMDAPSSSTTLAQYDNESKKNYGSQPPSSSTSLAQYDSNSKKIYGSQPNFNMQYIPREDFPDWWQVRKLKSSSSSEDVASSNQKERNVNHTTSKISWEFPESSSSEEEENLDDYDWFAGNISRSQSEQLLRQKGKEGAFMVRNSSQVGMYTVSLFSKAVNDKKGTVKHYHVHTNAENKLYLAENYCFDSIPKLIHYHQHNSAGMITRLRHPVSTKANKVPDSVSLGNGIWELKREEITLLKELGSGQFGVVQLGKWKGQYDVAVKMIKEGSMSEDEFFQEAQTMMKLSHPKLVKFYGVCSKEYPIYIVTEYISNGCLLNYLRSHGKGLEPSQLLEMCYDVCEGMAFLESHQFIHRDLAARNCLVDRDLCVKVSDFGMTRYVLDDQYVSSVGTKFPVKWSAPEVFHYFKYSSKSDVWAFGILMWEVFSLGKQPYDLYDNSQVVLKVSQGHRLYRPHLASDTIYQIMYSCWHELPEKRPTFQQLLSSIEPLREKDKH
# GAK = GAK (Homo sapiens, UniProt O14976); assay: NanoBRET target engagement; type: cell-based
# GAK, sequence (O14976 2-1311): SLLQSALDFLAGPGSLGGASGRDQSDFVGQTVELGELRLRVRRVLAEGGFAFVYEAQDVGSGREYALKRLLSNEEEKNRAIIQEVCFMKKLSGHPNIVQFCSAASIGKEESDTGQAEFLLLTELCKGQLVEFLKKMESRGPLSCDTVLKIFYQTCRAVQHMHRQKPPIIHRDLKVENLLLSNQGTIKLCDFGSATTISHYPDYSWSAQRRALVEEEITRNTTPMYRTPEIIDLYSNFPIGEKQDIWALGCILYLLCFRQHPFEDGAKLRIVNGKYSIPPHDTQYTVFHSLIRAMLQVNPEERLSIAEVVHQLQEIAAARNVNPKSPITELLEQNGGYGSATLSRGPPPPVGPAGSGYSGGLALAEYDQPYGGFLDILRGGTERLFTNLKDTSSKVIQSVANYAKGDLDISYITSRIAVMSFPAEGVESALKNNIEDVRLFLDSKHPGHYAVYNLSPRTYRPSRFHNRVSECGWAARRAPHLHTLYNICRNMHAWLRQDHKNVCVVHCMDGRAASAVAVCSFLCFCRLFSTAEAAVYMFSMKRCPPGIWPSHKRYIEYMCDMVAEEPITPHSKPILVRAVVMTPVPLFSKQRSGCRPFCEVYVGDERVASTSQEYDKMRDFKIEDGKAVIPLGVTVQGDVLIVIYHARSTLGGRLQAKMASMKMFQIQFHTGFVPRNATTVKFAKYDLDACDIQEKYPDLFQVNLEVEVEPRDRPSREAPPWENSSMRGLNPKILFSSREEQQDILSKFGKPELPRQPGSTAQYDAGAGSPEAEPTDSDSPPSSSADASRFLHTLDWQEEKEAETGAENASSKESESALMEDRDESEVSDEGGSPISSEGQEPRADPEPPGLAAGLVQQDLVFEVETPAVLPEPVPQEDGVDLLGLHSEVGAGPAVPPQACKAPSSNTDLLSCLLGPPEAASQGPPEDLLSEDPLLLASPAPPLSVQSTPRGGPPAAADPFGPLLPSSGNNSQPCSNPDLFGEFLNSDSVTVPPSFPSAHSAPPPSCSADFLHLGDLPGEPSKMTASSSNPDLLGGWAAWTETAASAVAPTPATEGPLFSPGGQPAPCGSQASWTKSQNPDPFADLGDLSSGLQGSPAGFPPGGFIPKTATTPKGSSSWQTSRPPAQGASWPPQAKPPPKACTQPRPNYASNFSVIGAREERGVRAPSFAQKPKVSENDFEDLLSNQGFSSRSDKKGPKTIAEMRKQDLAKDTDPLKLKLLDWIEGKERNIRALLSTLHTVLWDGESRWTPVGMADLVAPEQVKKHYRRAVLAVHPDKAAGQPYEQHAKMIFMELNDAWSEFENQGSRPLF
# EpHA2 (kinase domain) = EpHA2 (kinase domain) (Homo sapiens, UniProt P29317); assay: X-ray crystal structure; type: binding; conditions: co-crystal, 293 K
# EpHA2 (kinase domain), sequence (P29317 596-900): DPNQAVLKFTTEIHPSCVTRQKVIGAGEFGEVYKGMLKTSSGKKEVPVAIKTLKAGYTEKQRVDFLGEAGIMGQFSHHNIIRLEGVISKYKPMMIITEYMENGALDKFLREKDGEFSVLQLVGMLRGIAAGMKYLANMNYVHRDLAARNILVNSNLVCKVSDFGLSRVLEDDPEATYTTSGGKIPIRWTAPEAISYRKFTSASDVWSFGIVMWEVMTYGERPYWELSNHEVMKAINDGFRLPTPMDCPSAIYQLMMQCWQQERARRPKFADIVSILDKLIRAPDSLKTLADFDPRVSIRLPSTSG
# CK1e = CK1e (Homo sapiens, UniProt P49674); assay: biochemical; conditions: read-out: dTm 12
# CK1e, sequence (P49674 whole entry): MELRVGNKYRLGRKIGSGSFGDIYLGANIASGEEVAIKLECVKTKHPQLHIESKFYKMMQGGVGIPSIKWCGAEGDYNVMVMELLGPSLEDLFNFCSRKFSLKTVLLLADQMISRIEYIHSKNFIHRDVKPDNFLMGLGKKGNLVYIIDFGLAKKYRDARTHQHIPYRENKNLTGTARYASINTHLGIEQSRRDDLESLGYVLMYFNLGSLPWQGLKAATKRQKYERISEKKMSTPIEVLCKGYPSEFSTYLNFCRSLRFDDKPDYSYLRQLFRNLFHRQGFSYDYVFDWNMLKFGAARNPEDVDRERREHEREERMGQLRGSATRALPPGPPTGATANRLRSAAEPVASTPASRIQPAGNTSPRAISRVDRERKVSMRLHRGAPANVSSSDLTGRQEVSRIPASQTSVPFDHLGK
# Erk3 = Erk3 (Homo sapiens, UniProt Q16659); assay: biochemical; conditions: read-out: dTm 12
# Erk3, sequence (Q16659 whole entry): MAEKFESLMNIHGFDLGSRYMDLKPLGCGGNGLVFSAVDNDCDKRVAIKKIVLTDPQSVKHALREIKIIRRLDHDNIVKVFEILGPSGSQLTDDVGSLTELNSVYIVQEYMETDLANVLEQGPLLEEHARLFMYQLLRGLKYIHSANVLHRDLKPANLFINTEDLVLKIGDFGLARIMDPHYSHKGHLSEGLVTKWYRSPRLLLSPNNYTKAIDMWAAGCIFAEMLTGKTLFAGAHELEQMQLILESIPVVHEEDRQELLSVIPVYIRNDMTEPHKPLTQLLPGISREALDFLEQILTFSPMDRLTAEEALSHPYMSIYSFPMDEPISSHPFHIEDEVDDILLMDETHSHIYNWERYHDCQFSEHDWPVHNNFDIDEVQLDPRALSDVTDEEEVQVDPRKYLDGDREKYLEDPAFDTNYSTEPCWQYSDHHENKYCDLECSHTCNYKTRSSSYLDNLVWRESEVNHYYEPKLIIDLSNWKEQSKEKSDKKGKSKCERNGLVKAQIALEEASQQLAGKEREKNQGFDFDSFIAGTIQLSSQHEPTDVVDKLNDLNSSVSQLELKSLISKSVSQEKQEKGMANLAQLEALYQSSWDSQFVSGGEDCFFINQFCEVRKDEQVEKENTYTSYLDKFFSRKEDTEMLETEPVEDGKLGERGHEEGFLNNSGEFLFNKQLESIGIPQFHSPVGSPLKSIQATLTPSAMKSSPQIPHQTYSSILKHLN
# MSSK1 = MSSK1 (Homo sapiens, UniProt Q9UPE1); assay: biochemical; conditions: read-out: dTm 12
# MSSK1, sequence (Q9UPE1 whole entry): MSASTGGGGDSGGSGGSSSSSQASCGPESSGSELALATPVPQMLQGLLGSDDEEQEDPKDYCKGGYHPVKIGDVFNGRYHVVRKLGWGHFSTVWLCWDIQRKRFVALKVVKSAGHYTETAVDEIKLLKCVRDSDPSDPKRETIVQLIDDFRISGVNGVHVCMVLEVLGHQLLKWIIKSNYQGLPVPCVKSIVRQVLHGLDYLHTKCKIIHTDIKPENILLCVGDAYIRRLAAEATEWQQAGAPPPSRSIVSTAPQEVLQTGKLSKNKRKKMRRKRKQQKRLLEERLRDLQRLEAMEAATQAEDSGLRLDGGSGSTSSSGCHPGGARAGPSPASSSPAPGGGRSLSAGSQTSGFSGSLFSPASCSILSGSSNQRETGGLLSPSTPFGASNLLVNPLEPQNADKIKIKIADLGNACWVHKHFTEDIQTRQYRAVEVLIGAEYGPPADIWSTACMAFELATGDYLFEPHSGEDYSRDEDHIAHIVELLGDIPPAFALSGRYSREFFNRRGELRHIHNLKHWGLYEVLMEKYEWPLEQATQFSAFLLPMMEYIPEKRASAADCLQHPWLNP
# SLK = SLK (Homo sapiens, UniProt Q9H2G2); assay: biochemical; conditions: read-out: dTm 12
# SLK, sequence (Q9H2G2 whole entry): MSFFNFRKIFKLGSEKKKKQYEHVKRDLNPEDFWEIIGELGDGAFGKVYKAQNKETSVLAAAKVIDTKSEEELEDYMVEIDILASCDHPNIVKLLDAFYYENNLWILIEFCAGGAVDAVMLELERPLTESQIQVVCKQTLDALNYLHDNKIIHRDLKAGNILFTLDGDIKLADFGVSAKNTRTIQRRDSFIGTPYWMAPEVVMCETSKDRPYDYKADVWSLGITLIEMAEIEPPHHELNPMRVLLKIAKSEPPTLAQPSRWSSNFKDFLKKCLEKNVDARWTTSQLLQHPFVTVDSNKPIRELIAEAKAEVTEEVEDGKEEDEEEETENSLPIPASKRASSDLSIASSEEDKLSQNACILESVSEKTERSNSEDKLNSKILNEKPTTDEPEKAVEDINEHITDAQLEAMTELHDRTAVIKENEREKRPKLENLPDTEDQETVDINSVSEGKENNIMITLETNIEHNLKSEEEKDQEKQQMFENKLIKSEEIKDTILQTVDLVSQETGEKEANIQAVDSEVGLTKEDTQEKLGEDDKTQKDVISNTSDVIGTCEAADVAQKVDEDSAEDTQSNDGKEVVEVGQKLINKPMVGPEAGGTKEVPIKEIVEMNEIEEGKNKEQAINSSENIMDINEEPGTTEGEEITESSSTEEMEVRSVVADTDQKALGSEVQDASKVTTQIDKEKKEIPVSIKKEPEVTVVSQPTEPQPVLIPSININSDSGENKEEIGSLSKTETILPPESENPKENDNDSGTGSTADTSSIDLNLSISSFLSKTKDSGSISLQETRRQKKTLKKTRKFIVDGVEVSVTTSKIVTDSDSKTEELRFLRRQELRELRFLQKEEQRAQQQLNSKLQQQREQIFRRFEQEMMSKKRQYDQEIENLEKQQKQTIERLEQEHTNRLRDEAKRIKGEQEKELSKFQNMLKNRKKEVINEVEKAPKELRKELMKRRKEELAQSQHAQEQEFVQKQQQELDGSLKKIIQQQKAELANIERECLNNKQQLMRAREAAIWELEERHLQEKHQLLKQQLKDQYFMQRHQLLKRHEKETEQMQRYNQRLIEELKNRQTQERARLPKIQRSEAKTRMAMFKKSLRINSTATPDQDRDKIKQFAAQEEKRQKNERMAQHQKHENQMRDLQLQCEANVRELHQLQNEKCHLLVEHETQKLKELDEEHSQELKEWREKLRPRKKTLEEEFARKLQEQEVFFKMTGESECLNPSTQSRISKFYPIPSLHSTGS
# MST4, sequence (Q9P289 whole entry): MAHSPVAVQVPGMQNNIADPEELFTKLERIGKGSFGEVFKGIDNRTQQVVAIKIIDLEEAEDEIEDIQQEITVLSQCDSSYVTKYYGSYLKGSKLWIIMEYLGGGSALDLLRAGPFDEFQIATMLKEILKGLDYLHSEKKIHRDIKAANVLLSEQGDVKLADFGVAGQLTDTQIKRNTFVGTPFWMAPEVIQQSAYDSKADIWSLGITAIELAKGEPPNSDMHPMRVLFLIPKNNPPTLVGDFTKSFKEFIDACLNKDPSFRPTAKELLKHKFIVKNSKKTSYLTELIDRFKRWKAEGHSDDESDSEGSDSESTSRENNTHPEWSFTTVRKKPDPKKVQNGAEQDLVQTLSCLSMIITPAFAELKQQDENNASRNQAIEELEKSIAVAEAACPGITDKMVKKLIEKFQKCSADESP
smiles,measurement,setting,value
"CNc1ncc2cc(-c3ccc(-c4cccc(C)n4)cc3Cl)c(=O)n(CC3OCC(N)CO3)c2n1 (centres unmarked) [compound 2, G-5555]",∆Tm G-5555 (2),"MST4; 10 µM, binder",6.1 degC
same,∆Tm G-5555 (2),"MST2; 10 µM, binder",6.9 degC
"CNc1ncc2cc(-c3cc(Cl)ccc3Cl)c(=O)n(CCCCN)c2n1 [compound 8, 8-(4-Aminobutyl)-6-(2,5-dichlorophenyl)-2-(methylamino)pyrido[2,3-d]pyrimidin-7(8H)-one]",IC50,BMX,> 1000 nM
"CNc1ncc2cc(-c3cc(F)ccc3F)c(=O)n(CCCCN)c2n1 [compound 5, 8-(4-Aminobutyl)-6-(2,5-difluorophenyl)-2-(methylamino)pyrido[2,3-d]pyrimidin-7(8H)-one]",ΔTm at 10 µM,MST4; read-out: ∆Tm MR22 (5),1.4 °C
"CNc1ncc2cc(-c3ccccc3Cl)c(=O)n(CCCCN)c2n1 [compound 4, 8-(4-Aminobutyl)-6-(2-chlorophenyl)-2-(methylamino)pyrido[2,3-d]pyrimidin-7(8H)-one]",ΔTm at 10 µM,MST2; read-out: ∆Tm MR21 (4),1 °C
same,IC50,GAK,> 1000 nM
"CNc1ncc2cc(-c3cc(C(F)(F)F)ccc3Cl)c(=O)n(CCCCN)c2n1 [compound 9, 8-(4-Aminobutyl)-6-(2-chloro-5-(trifluoromethyl)phenyl)-2-(methylamino)pyrido[2,3-d]pyrimidin-7(8H)-one]",X-ray crystal structure,EpHA2 (kinase domain),8BIO (EpHA2-9 complex)
"CNc1ncc2cc(-c3cc(F)c(-c4cccc(C)n4)cc3F)c(=O)n(CCCCN)c2n1 [compound 12, 8-(4-Aminobutyl)-6-(2,5-difluoro-4-(6-methylpyridin-2-yl)phenyl)-2-(methylamino)pyrido[2,3-d]pyrimidin-7(8H)-one]",ΔTm at 10 µM,CK1e,3.1 °C
same,ΔTm at 10 µM,Erk3,0.7 °C
same,ΔTm at 10 µM,MSSK1,-0.2 °C
same,ΔTm at 10 µM,SLK,2.9 °C
